Laboratory results from patent US9809624B2, “Neurotensin analogues for radioisotope targeting to neurotensin receptor-positive tumors” (INSERM (Institut National de la Sante et de la Recherche …, priority 2009, dated 2017).
Non-standard residues stand in square brackets, D forms with d. Residues, ends and D or L forms follow the SMILES beside them. Tle = CC(C)(C)[C@H](N)C(=O)O

Tests used:
NTS1 [1] = biological target: T1, NTS1 (Homo sapiens, UniProt P30989); assay: Binding to HT29 cell membranes (competition with 125I-Tyr3-neurotensin); conditions: 50 pM 125I-Tyr3-neurotensin, 45 min room temperature
T1 construct: endogenous in cells; host or cells: HT29 cells (membranes or living cells)
T1 sequence (P30989 whole entry): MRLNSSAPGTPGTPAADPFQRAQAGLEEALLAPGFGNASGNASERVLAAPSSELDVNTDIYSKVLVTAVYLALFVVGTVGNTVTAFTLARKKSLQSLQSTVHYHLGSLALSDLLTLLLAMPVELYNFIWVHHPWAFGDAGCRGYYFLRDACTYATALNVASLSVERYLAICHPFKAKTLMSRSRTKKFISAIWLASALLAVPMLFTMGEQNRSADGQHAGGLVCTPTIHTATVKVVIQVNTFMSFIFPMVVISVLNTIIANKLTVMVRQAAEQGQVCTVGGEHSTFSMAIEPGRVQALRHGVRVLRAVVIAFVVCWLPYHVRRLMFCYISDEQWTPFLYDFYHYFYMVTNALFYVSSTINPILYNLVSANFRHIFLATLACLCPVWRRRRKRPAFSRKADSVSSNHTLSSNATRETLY
Experimental: Membrane bound activity was recovered by filtration onto Whatman GF/B filters presoaked for 1 hour with polyethyleneimine (0.2% in water) and rinsed twice with buffer. Non-specific binding was evaluated in the presence of 10^-6 M neurotensin. Radioactivity was counted and results were analyzed with GraphPad Prism® (GraphPad Software, Inc. San Diego, Calif.). All experiments were performed three times in triplicate. Ki values for binding to HT29 cell membranes and IC50 for binding to cells were used to evaluate affinity (Table 2).

NTS1 [2] = biological target: T1, NTS1; assay: Binding to living HT29 cells (competition); conditions: 60 min 37° C., tracer [Lys6(DTPA(111In))]-NT, the labeled DTPA(111In)-peptide itself, or 125I-NT (DOTA-peptides)
Experimental: After washing the wells twice with ice-cold DMEM 0.2% BSA, cells were lysed in 500 μL 0.1N NaOH and radioactivity was counted. Non-specific binding was evaluated in the presence of 10^-6 M neurotensin. Competition curves were analyzed with the “Equilibrium Expert” software (Raguin et al., Anal. Biochem. (2002) 310, 1-14). All experiments were performed three times in triplicate. Ki values for binding to HT29 cell membranes and IC50 for binding to cells were used to evaluate affinity (Table 2).

Ki (NTS1 [1]) | IC50 (NTS1 [2]) | Structure (SMILES)
0.072 ± 0.019 nM | 0.82 ± 0.08 nM | CC[C@H](C)[C@H](NC(=O)[C@H](Cc1ccc(O)cc1)NC(=O)[C@@H]1CCCN1C(=O)[C@H](CCCNC(=N)N)NC(=O)[C@H](CCCNC(=N)N)NC(=O)[C@@H]1CCCN1C(=O)[C@H](CCCCN)NC(C)=O)C(=O)N[C@@H](CC(C)C)C(=O)O [NT-20.1]
0.26 ± 0.07 nM | 2.46 ± 0.79 nM | CC(=O)N[C@@H](CCCCN)C(=O)N1CCC[C@H]1C(=O)N[C@@H](CCCNC(=N)N)C(=O)N[C@@H](CCCNC(=N)N)C(=O)N1CCC[C@H]1C(=O)N[C@@H](Cc1ccc(O)cc1)C(=O)N[C@H](C(=O)N[C@@H](CC(C)C)C(=O)O)C(C)(C)C [NT-20.2, Ac-Lys-Pro-Arg-Arg-Pro-Tyr-Tle-Leu-OH] (Ac-KPRRPY[Tle]L-OH)
